Assay results published in patent US8557800B2, “Sphingosine kinase inhibitors” (Apogee Biotechnology Corporation, priority 2005, dated 2013).
Several values for one entry are separate records, joined by “and”; a condition that tells them apart may be missing. Identical values can stand only once. Like-named read-outs stand apart in the source and are kept apart here.

Assays:
Hep-G2 (liver) = assay: Human tumor cell line panel, sulforhodamine B; assay type: cell-based; details: HepG2, 48 hours, mean ± sd
SK-OV-3 (ovary) = assay: Human tumor cell line panel, sulforhodamine B; assay type: cell-based; details: 48 hours, mean ± sd
Panc-1 (pancreas) = assay: Human tumor cell line panel, sulforhodamine B; assay type: cell-based; details: 48 hours, mean ± sd
HT-29 (colon) = assay: Human tumor cell line panel, sulforhodamine B; assay type: cell-based; details: 48 hours, mean ± sd
DU145 (prostate) = assay: Human tumor cell line panel, sulforhodamine B; assay type: cell-based; details: DU-145, 48 hours, mean ± sd
[1] = tested on: mouse JC mammary adenocarcimona cell line growing subcutaneously in Balb/c mice
Protocol: The antitumor activity of the representative SK inhibitors were evaluated using a syngeneic tumor model that uses the mouse JC mammary adenocarcimona cell line growing subcutaneously in immunocompetent Balb/c mice (Lee et al., 2003, Oncol Res 14: 49).
In FIG. 1, Balb/c mice, 6-8 weeks old, were injected subcutaneously with 10^6 JC cells suspended in phosphate-buffered saline. The SK inhibitors Compounds 62 and 57 were dissolved in PEG400 and administered to mice every-other day at a dose of 100 mg/kg. Body weights and tumor volumes were monitored daily. In FIG. 1, tumor growth is expressed as the tumor volume relative to day 1 for each animal.

MDA-MB-231 (breast, ER−) = assay: Human tumor cell line panel, sulforhodamine B; assay type: cell-based; details: 48 hours, mean ± sd
[2] = Oral pharmacokinetics in mice (PEG400); assay type: in vivo; details: mouse, blood, 100 mg/kg oral gavage in PEG400, female Swiss-Webster mice
Protocol: Oral pharmacokinetic studies were performed on Compounds 62 and 57. Each compound was dissolved in PEG400 and administered to female Swiss-Webster mice at a dose of 100 mg/kg by oral gavage. Mice were anesthetized and blood was removed via cardiac puncture at 5 minutes, 30 minutes, 1, 2, and 8 hours. Concentrations of the test compounds were determined using liquid-liquid extraction, appropriate internal standards and reverse phase HPLC with UV detection. Control blood samples were run to identify compound-specific peaks. Pharmacokinetic parameters were calculated using the WINNONLIN analysis software package (Pharsight). Non-compartmental and compartmental models were tested, with the results shown in Table 7 derived from the best fit equations.

MCF-7 (breast, ER+) = assay: Human tumor cell line panel, sulforhodamine B; assay type: cell-based; details: MCF7, 48 hours, mean ± sd
Caco-2 (colon) = assay: Human tumor cell line panel, sulforhodamine B; assay type: cell-based; details: 48 hours, mean ± sd
1025LU (melanoma) = assay: Human tumor cell line panel, sulforhodamine B; assay type: cell-based; details: 48 hours, mean ± sd
recombinant human SK [3] = assay: Inhibition of recombinant human SK, LC/MS/MS assay; assay type: biochemical; details: 6 μg/ml compound
In short: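 Enzyme incubated with unlabeled sphingosine and ATP (1 mM, as in the radiometric format) for 30 min, then stopped and extracted with acetonitrile. S1P quantified by C8 reverse-phase HPLC–MS/MS against C17 sphingosine and C17 S1P internal standards using calibration curves.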

T24 (bladder) = assay: Human tumor cell line panel, sulforhodamine B; assay type: cell-based; details: 48 hours, mean ± sd
A-498 (kidney) = assay: Human tumor cell line panel, sulforhodamine B; assay type: cell-based; details: A498, 48 hours, mean ± sd
physchem = details: aqueous with cosolvent or surfactant or cyclodextrin
[4] = tested on: MCF-10A non-transformed human breast epithelial cells; assay: Cytotoxicity, SRB binding assay; assay type: cell-based; details: inhibition of cell proliferation, 48 h, read-out: MCF-10A IC50
In short: (§1)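 Cells exposed to varying compound doses for 48 h, then survival measured by sulforhodamine B staining. IC50 is the concentration giving 50% proliferation inhibition, in μM, as mean±sd of replicate trials.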

[5] = tested on: MCF-7 human breast adenocarcinoma cells; assay: Cytotoxicity, SRB binding assay; assay type: cell-based; details: MCF7, inhibition of cell proliferation, 48 h, read-out: MCF-7 IC50
In short: as §1

recombinant human SK [6] = assay: Recombinant human SK assay with [3H]sphingosine; assay type: biochemical; details: positive control
Protocol: An assay for identifying inhibitors of recombinant human SK has been established (French et al., 2003, Cancer Res 63: 5962). cDNA for human SK was subcloned into a pGEX bacterial expression vector, which results in expression of the enzyme as a fusion protein with glutathione-S-transferase, and the fusion protein is then purified on a column of immobilized glutathione. SK activity is measured by incubation of the recombinant SK with [^3H]sphingosine and 1 mM ATP under defined conditions, followed by extraction of the assay mixture with chloroform:methanol under basic conditions. […] Radioactivity in aliquots of the aqueous phase is then quantified as a measure of [^3H]S1P formation. There is a low background level of partitioning of [^3H]sphingosine into the aqueous phase, and addition of the recombinant SK greatly increases the formation of [^3H]S1P.

**Q.** For `CN1CCCC1CCNC(=O)C12CC3CC(C1)CC(c1ccc(Cl)cc1)(C3)C2` (centres unmarked) [Compound 57, 3-(4-Chloro-phenyl)-adamantane-1-carboxylic acid [2-(1-methyl-pyrrolidin-2-yl)-ethyl]-amide], which IC50 (Hep-G2 (liver)) is on record?
**A.** The IC50 was 5 ± 1.8 µM.

**Q.** And the IC50 (SK-OV-3 (ovary))?
**A.** The IC50 was 9.2 ± 2.8 µM.

**Q.** What about the IC50 (Panc-1 (pancreas)) of the same compound?
**A.** The IC50 was 14.1 ± 6.3 µM.

**Q.** And the IC50 (HT-29 (colon))?
**A.** Its IC50 is 9.6 ± 4 µM.

**Q.** And the IC50 (DU145 (prostate))?
**A.** The IC50 was 8.7 ± 3.3 µM.

**Q.** And the “inhibition of tumor growth relative to controls” value ([1]; 100 mg/kg oral every-other day in PEG400)?
**A.** The value was 78%.

**Q.** And the In vivo activity ([1]; JC tumor model, intraperitoneal (ip) or oral (po) administration)?
**A.** Its In vivo activity is “active - po”.

**Q.** And the IC50 (MDA-MB-231 (breast, ER−))?
**A.** The IC50 was 12.5 ± 2.5 µM.

**Q.** What about the Cmax [2] of the same compound?
**A.** Its Cmax is 3.8 µM.

**Q.** What about the Tmax [2] of the same compound?
**A.** Its Tmax is 2 h.

**Q.** And the half-life [2]?
**A.** Its half-life is 19.3 h.

**Q.** What about the AUC(0-inf) ([2]; read-out: AUC0→∞ (μM * h)) of the same compound?
**A.** Its AUC(0-inf) is 111 µM·h.

**Q.** And the AUC(0-inf) ([2]; read-out: AUC0→∞ (μg * h/mL))?
**A.** The AUC(0-inf) was 45000 ng·h/mL.

**Q.** What about the IC50 (MCF-7 (breast, ER+)) of the same compound?
**A.** Its IC50 is 12.1 ± 3.1 µM.

**Q.** What about the IC50 (Caco-2 (colon)) of the same compound?
**A.** Its IC50 is 3.2 ± 2 µM.

**Q.** What about the IC50 (1025LU (melanoma)) of the same compound?
**A.** The IC50 was 7.2 ± 0.8 µM.

**Q.** What about the “Recombinant SK (% inhibition)” value (recombinant human SK [3]) of the same compound?
**A.** The value was 30%.

**Q.** What about the IC50 (T24 (bladder)) of the same compound?
**A.** Its IC50 is 12.7 ± 2.8 µM.

**Q.** And the IC50 (A-498 (kidney))?
**A.** Its IC50 is 8 ± 3.5 µM.

**Q.** What about the solubility (physchem) of the same compound?
**A.** Its solubility is ≥ 15000 µg/mL and 30000 µM to 40000 µM.

**Q.** And the IC50 [4]?
**A.** Its IC50 is 8 µM.

**Q.** And the IC50 [5]?
**A.** Its IC50 is 6 µM.

**Q.** Which “concentration that completely inhibits SK activity” value (recombinant human SK [6]) does the source give for `CCCCCCCCCCCCC/C=C/[C@@H](O)[C@H](CO)N(C)C` [DMS, D-erythro-N,N-dimethylsphingosine] here?
**A.** The value was “above 25 μM”.
